ChEMBL document CHEMBL1137140, “Synthesis and biological evaluation of the major metabolite of atomoxetine: elucidation of a partial kappa-opioid agonist effect” (Bioorg Med Chem Lett, 2004)

Tests used:
[1] = target: Nociceptin receptor (Homo sapiens, UniProt P41146); assay: Inhibitory activity against Opioid receptor like 1 expressed in HEK293 cells; type: cell-based
[2] = Inhibitory activity against Opioid receptor kappa 1 expressed in HEK293 cells; type: cell-based, Homo sapiens
[3] = Inhibitory activity against Opioid receptor delta 1 expressed in HEK293 cells; type: cell-based, Homo sapiens
[4] = Inhibitory activity against Opioid receptor mu 1 expressed in HEK293 cells; type: cell-based, Homo sapiens

Nociceptin receptor, sequence (P41146 whole entry): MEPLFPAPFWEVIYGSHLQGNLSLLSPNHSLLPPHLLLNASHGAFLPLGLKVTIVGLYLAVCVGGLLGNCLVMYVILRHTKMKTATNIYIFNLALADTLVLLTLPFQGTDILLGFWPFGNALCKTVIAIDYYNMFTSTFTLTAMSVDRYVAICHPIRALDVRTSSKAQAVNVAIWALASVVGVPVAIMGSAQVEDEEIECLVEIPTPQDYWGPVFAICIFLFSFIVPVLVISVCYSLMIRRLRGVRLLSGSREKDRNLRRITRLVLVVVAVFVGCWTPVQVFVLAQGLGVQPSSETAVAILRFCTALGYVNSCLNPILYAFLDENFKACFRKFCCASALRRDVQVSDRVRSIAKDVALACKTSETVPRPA

IC50 [1] [µM]	IC50 [2] [µM]	IC50 [3] [µM]	IC50 [4] [µM]	SMILES
> 5	4.38	> 5	4.19	CNCC[C@@H](Oc1ccccc1C)c1ccccc1 [ATOMOXETINE]
> 5	0.088	1.49	0.164	CNCC[C@@H](Oc1ccc(O)cc1C)c1ccccc1
